According to patent publication US20240285557A1, “PHARMACEUTICAL COMPOSITION COMPRISING LIPASE INHIBITOR FOR TREATMENT OR TREATMENT OF RNA VIRAL INFECTIONS” (priority 2021, published 2024):
“And” between values parts separate entries of the source, which are not always exact repeats. Identical values can stand only once. Like-named read-outs stand apart in the source and are kept apart here.

Columns and labels:
[1] = tested on: Influenza A virus (H1N1) (PR8)
[2] = tested on: influenza A virus PR8 strain; assay: Proliferation of influenza A virus in MRC-5, NCI-H293, WI-38, and Calu-3 cells; assay type: cell-based; details: MRC-5, NCI-H293, WI-38, Calu-3 cells; 1, 10, 20 μM; vs solvent (vehicle)
[3] = tested on: SARS-COV-2 strain KCDC03, KDCA51463, or KDCA55905; assay: Proliferation of SARS-CoV-2 in various cultured cells; assay type: cell-based; details: Vero E6, Caco-2, Calu-3 cells (FIGS. 21a to 21f); vs solvent (vehicle)
[4] = tested on: Porcine respiratory reproductive syndrome virus (LMY); details: for SI (CC50/IC50): Porcine respiratory reproductive syndrome virus (LMY); for IC50: MARC-145 cells, MOI 0.01 ffu/cell, drug added after 18 hours, additional 18 hours
[5] = tested on: Bovine coronavirus (KWD20); details: for SI (CC50/IC50): Bovine coronavirus (KWD20); for IC50: HRT-18G cells, MOI 0.01 ffu/cell, drug added after 18 hours, additional 18 hours
[6] = tested on: Species A Rotavirus (NCDV); details: for SI (CC50/IC50): Species A Rotavirus (NCDV); for IC50: MA104 cells, MOI 0.01 ffu/cell, drug added after 12 hours, additional 12 hours
[7] = tested on: influenza A virus PR8 strain; assay: Influenza A virus-infected mice treated with lipase inhibitor; assay type: in vivo, C57BL/6J mice; details: for survival rate: 15 days observation; for free fatty acids and glycerol concentrations in lung tissues / progeny virus numbers in lung tissues / virus gene numbers in lung tissues: 5 mg/kg/day for 4 days, sixth day post-infection; for lung lesions, including interstitial pneumonia, and number of virus-positive cells / number of lipid droplets in bronchiolar epithelial cells / viral antigen in the bronchiolar epithelial cells: 5 mg/kg/day, vs untreated virus-inoculated group; for survival rate, weight loss, and clinical symptoms: 0.01 to 10 mg/kg/day, dose-dependent
Description: For use in verifying the antiviral effect of lipase inhibition in animals infected with influenza A virus, 150 mg/ml of atglistatin and 150 mg/ml of CAY10499 were dissolved in DMSO. To evaluate the antiviral effect depending on the concentration, the drugs were prepared at concentrations of 1.000, 0.500, 0.100, 0.010, and 0.001 mg/ml. […] The drugs were completely dissolved by vortexing.
For evaluating the antiviral efficacy of CAY10499, mouse groups were prepared in the same manner with the exception of using CAY10499 instead of atglistatin.
Influenza A virus inoculation was carried out on anesthetized mice via an intranasal route at 1,000 PFU per mouse, following the same procedure as above. In cases where the virus was not injected, only phosphate-buffered saline was administered. Observations were made for 15 days, during which survival rates, body weight, and clinical symptoms were monitored and recorded daily. […] Drug treatment began two days after the inoculation of influenza A virus.
The survival rate, which was 100% with a 0% mortality rate on day 0 of the infection, was measured daily over 15 days, and compared with the survival rate of the virus-injected and untreated group. Statistical significance was analyzed using the Log Rank Test, with a p value of 0.05 or […] considered significant.
Each group consisted of four seven-week-old female wild-type C57BL/6J mice, acclimatized for one week, and used in the experiment at eight weeks of age.
Mice were inoculated with influenza A virus PR8 strain in the same manner as described above, and drug treatment was conducted for 4 days, starting from the second day post-infection. On the sixth day post-infection, the mice were euthanized for autopsy.
These tissues were assayed for free fatty acid levels.
To evaluate lipid droplets and influenza A virus antigen in the lung tissues, the fixed tissues were prepared into 3-μm-thick frozen sections. […] After washing, the sections were mounted with Slow-Fade Gold antifade reagent for nucleus staining.
The sections were then finely cut at 3 μm thickness, deparaffinized in xylene, and rehydrated through graded alcohols and water. […] Histological examination was then performed using an optical microscope.
Immunohistochemistry was performed for influenza A virus antigens in the lung tissue.

[8] = tested on: Porcine epidemic diarrhea coronavirus (QIAP1401); details: for IC50: Vero E6 cells, MOI 0.01 ffu/cell, drug added after 18 hours, additional 18 hours
[9] = tested on: Porcine sapovirus (Cowden); details: for SI (CC50/IC50): Porcine sapovirus (Cowden); for IC50: LLC-PK cells, MOI 0.01 ffu/cell, drug added after 18 hours, additional 18 hours
[10] = tested on: SARS-COV-2, IAV, BCOV, PEDV, RVA, PRRSV, and PSaV; assay: Viral genome copy (real-time PCR) and progeny virus production in cells infected with seven RNA viruses; assay type: cell-based; details: 1, 10, and 20 μM; dose-dependent, all seven viruses
Source text: Subsequently, each well was washed three times with phosphate-buffered saline, followed by the addition of the respective viral culture media.
Subsequently, each plate underwent three cycles of freezing and thawing to detach the cells from each well for subsequent experiments.
To analyze the inhibitory effects of atglistatin and CAY10499 on the genome copies of each virus, RNA was extracted using the RNeasy mini kit (Qiagen). The extracted RNA was then used to synthesize cDNA using the TOPscript™ cDNA Synthesis kit (Enzynomics), which includes random hexamer and poly(rA)-oligo(dT). Afterward, real-time PCR was performed on the synthesized cDNA in the TOPreal™ qPCR 2× PreMix (Enzynomics) solution in the presence of specific primers for SARS-COV-2 nucleocapsid (N), influenza A virus PB1, bovine coronavirus spike (S), porcine epidemic diarrhea coronavirus nucleocapsid (N), bovine species A rotavirus VP6, porcine reproductive and respiratory syndrome virus matrix (M), and porcine sapovirus VPg, using the LineGene 9600 Plus Real-time PCR detection system (Bioer, Hangzhou, China).
To analyze the inhibitory effects of atglistatin and CAY10499 on the production of progenies of the viruses, the supernatant obtained after three cycles of freezing and thawing was serially ten-fold diluted. […] After adsorption, each well was washed twice with phosphate-buffered saline (pH 7.4), followed by the addition of the respective culture media.
Then, after removal of the supernatants, the cells were fixed with 4% paraformaldehyde for 15 minutes and each well was washed thrice with phosphate-buffered saline and treated with 0.2% Triton X-100 at 20° C. for 10 minutes.
After three washes with phosphate-buffered saline, the wells were treated with 100- to 200-fold diluted primary antibodies to the spike protein of SARS-COV-2, the nucleoprotein protein of influenza A virus, the spike protein of bovine coronavirus, the nucleocapsid protein of porcine epidemic diarrhea coronavirus, the VP6 protein of bovine species A rotavirus, the matrix protein of porcine reproductive and respiratory syndrome virus, and the VPg protein of porcine sapovirus, respectively, and applied to a refrigerator at 4° C. for 12 hours.
Subsequently, the supernatant was removed, and each well was washed thrice with phosphate-buffered saline, followed by incubation with a 100- to 200-fold dilution of a secondary antibody conjugated with Alexa Fluor 488 or fluorescein isothiocyanate at room temperature for 2 hours.
Each virus was allowed to adsorb onto the cells which were then cultured in a freshly changed medium containing DABPU-EM or DABPU-DE. Thereafter, the cells were detached from the wells for subsequent experiments.

[11] = tested on: SARS-CoV-2 (KCDC03); assay: Half-maximal viral inhibitory concentration (IC50), immunofluorescence of virus-positive cells; details: for SI (CC50/IC50): SARS-CoV-2 (KCDC03); for IC50: Vero E6 cells, MOI 0.01 ffu/cell, drug added after 18 hours, additional 18 hours
[12] = 5 mg kg^−1 day^−1 intraperitoneally for four days from day 2 post infection
[13] = 10 mg kg^−1 day^−1 intraperitoneally for four days from day 2 post infection, control 100% mortality
[14] = Porcine epidemic diarrhea coronavirus (QIAP1401)

CN(C)C(=O)Nc1cccc(-c2ccc(N(C)C)cc2)c1 [Atglistatin, 3-(4′-(dimethylamino)-(1,1′-biphenyl)-3-yl)-1,1-dimethylurea]
SI (CC50/IC50) ([1]; Influenza A virus (H1N1) (PR8)): 251
progeny virus number [2]: significantly reduced
viral genome copy number [2]: significantly reduced
number of viral genome copies [3]: significantly reduced
SI (CC50/IC50) [4]: 84
SI (CC50/IC50) [5]: 152
SI (CC50/IC50) [6]: 32
survival rate [7, 12]: 62.5%
free fatty acids and glycerol concentrations in lung tissues [7]: significant decrease
progeny virus numbers in lung tissues [7]: significant decrease
virus gene numbers in lung tissues [7]: significant decrease
lung lesions, including interstitial pneumonia, and number of virus-positive cells [7]: alleviation and reduction
number of lipid droplets in bronchiolar epithelial cells [7]: did not decrease significantly
viral antigen in the bronchiolar epithelial cells [7]: significant reduction
survival rate [7, 13]: 60% and 62.5%
survival rate, weight loss, and clinical symptoms [7]: improvement
SI (CC50/IC50) [8, 14]: 116
SI (CC50/IC50) [9]: 72
copies of genomes of each virus [10]: reduced
production of progenies of each virus [10]: reduced
SI (CC50/IC50) [11]: 154
IC50 [11]: 1470 nM

COc1nn(-c2ccc(NC(=O)OCc3ccccc3)c(C)c2)c(=O)o1 [CAY10499]
IC50 [1]: 4130 nM
SI (CC50/IC50) [1]: 27
IC50 [4]: 4210 nM
SI (CC50/IC50) [4]: 21
SI (CC50/IC50) [5]: 11
IC50 [5]: 7300 nM
IC50 [6]: 20800 nM
SI (CC50/IC50) [6]: 4
free fatty acids and glycerol concentrations in lung tissues [7]: significant decrease
progeny virus numbers in lung tissues [7]: significant decrease
virus gene numbers in lung tissues [7]: significant decrease
lung lesions, including interstitial pneumonia, and number of virus-positive cells [7]: alleviation and reduction
number of lipid droplets in bronchiolar epithelial cells [7]: did not decrease significantly
viral antigen in the bronchiolar epithelial cells [7]: significant reduction
survival rate [7, 13]: 50%
survival rate, weight loss, and clinical symptoms [7]: improvement
SI (CC50/IC50) [8]: 30
IC50 [8]: 3190 nM
IC50 [9]: 11800 nM
SI (CC50/IC50) [9]: 8
copies of genomes of each virus [10]: reduced
production of progenies of each virus [10]: reduced
SI (CC50/IC50) [11]: 62
IC50 [11]: 1540 nM

CCN(CC)C(=O)Nc1cccc(-c2ccc(N(C)C)cc2)c1 [DABPU-DE]
SI (CC50/IC50) ([1]; Influenza A virus (H1N1) (PR8)): 207
IC50 ([1]; […], drug added after 12 hours, additional 12 hours): 1030 nM
progeny virus number [2]: significantly reduced
viral genome copy number [2]: significantly reduced
number of viral genome copies [3]: significantly reduced
IC50 [4]: 2290 nM
SI (CC50/IC50) [4]: 95
SI (CC50/IC50) [5]: 158
IC50 [5]: 1120 nM
IC50 [6]: 5220 nM
SI (CC50/IC50) [6]: 36
survival rate [7, 12]: 68.8%
free fatty acids and glycerol concentrations in lung tissues [7]: significantly reduced
progeny virus numbers in lung tissues [7]: significantly reduced
virus gene numbers in lung tissues [7]: significantly reduced
lung lesions, including interstitial pneumonia, and number of virus-positive cells [7]: alleviation and reduction
number of lipid droplets in bronchiolar epithelial cells [7]: no significant decrease
viral antigen in the bronchiolar epithelial cells [7]: significantly decreasing
survival rate [7, 13]: 68.8%
survival rate, weight loss, and clinical symptoms [7]: improvement
SI (CC50/IC50) [8, 14]: 128
IC50 [8]: 1620 nM
IC50 [9]: 2770 nM
SI (CC50/IC50) [9]: 81
copies of genomes of each virus [10]: reduced
production of progenies of each virus [10]: reduced
SI (CC50/IC50) [11]: 185
IC50 [11]: 1200 nM

CCN(C)C(=O)Nc1cccc(-c2ccc(N(C)C)cc2)c1 [DABPU-EM, 3-(4′-(dimethylamino)-(1,1′-biphenyl)-3-yl)-1-ethyl-1-methylurea]
SI (CC50/IC50) ([1]; Influenza A virus (H1N1) (PR8)): 127
progeny virus number [2]: significantly reduced
viral genome copy number [2]: significantly reduced
number of viral genome copies [3]: significantly reduced
SI (CC50/IC50) [4]: 78
SI (CC50/IC50) [5]: 54
SI (CC50/IC50) [6]: 32
free fatty acids and glycerol concentrations in lung tissues [7]: significantly reduced
progeny virus numbers in lung tissues [7]: significantly reduced
virus gene numbers in lung tissues [7]: significantly reduced
lung lesions, including interstitial pneumonia, and number of virus-positive cells [7]: alleviation and reduction
number of lipid droplets in bronchiolar epithelial cells [7]: no significant decrease
viral antigen in the bronchiolar epithelial cells [7]: significantly decreasing
survival rate [7, 13]: 50%
survival rate, weight loss, and clinical symptoms [7]: improvement
SI (CC50/IC50) [8, 14]: 108
SI (CC50/IC50) [9]: 62
copies of genomes of each virus [10]: reduced
production of progenies of each virus [10]: reduced
SI (CC50/IC50) [11]: 122
IC50 [11]: 1710 nM
